Here are results for 26 molecules from US9018238B2, “Inhibitor of casein kinase 1δ and casein kinase 1ε” (Pharmadesign, Inc., priority 2009, dated 2015).

Structures are written as SMILES.

Assay [1] addresses T1, human recombinant casein kinase 1δ (Homo sapiens, UniProt P48730).
T1 construct: purchased INVITROGEN PV3665
Put plainly: Casein kinase 1δ inhibition assay (Z'-LYTE Ser/Thr 11 Peptide). The format is biochemical. The settings on record: 0.3 μg/ml compound, 3.0 μg/ml enzyme, 1.0 μM peptide, 20 μM ATP; 15 min pre-reaction, 2 hours; read-out: Casein kinase 1δ inhibitory rate. As for the experimental part:
The activity of the present compound to inhibit casein kinase 1δ and casein kinase 1ε was measured using human recombinant casein kinase 1δ (INVITROGEN; Cat No. PV3665) or casein kinase 1ε (INVITROGEN; Cat No. PV3500) as an enzyme source, and using Z′-LYTE Ser/Thr 11 Peptide (INVITROGEN; Cat No. PV3671) as a phosphorylation substrate. The compositions (final concentrations) applied during the inhibitory activity measurement assays are as follows.
Assay of Casein Kinase 1δ
3.0 μg/ml casein kinase 1δ, 0.3 μg/ml the present compound, 1.0 μM peptide, 20 μM ATP, 50 mM HEPES (pH 7.4), 10 mM MgCl2, 0.01% Brij-35, and 0.5% DMSO
(§1) The present compound had previously been reacted with the enzyme at room temperature for 15 minutes. Two hours after completion of the reaction, the remaining phosphorylation activity was measured using Z′-LYTE Kinase Assay Kit-Ser/Thr 11 Peptide (INVITROGEN; Cat No. PV3670).
(§2) The inhibitory rate of the present compound was calculated with respect to the phosphorylation activity of each of casein kinase 1δ and casein kinase 1ε in a case in which no such compounds were added. Tables 1 to 4 show the inhibitory rate (%) of each compound.

Assay [2] deals with T2, human recombinant casein kinase 1ε (Homo sapiens, UniProt P49674).
T2 construct: purchased INVITROGEN PV3500
The assay is described as follows: Casein kinase 1ε inhibition assay (Z'-LYTE Ser/Thr 11 Peptide). The format is biochemical. The following applies: 0.3 μg/ml compound, 0.5 μg/ml enzyme, 1.0 μM peptide, 20 μM ATP; 15 min pre-reaction, 2 hours; read-out: Casein kinase 1ε inhibitory rate. As for the experimental part: The activity of the present compound to inhibit casein kinase 1δ and casein kinase 1ε was measured using human recombinant casein kinase 1δ (INVITROGEN; Cat No. PV3665) or casein kinase 1ε (INVITROGEN; Cat No. PV3500) as an enzyme source, and using Z′-LYTE Ser/Thr 11 Peptide (INVITROGEN; Cat No. PV3671) as a phosphorylation substrate. The compositions (final concentrations) applied during the inhibitory activity measurement assays are as follows. […]
as §1, §2

Assay [3] deals with N2A cells (N2A-APP695 cells). The settings on record: N2A-APP695 cells excessively expressing constitutively active casein kinase 1ε; cited from earlier work.
The test system of assay [4] is human pancreatic cancer cell line. The following applies: human pancreatic cancer cell line in vitro; cited from earlier work.
Assay [5] relates to human pancreatic cancer cell line transplanted into the subcutis of a mouse. The following applies: cited from earlier work.
A further assay deals with rats. The following applies: subcutaneous administration; cited from earlier work.

T1 sequence (P48730 whole entry): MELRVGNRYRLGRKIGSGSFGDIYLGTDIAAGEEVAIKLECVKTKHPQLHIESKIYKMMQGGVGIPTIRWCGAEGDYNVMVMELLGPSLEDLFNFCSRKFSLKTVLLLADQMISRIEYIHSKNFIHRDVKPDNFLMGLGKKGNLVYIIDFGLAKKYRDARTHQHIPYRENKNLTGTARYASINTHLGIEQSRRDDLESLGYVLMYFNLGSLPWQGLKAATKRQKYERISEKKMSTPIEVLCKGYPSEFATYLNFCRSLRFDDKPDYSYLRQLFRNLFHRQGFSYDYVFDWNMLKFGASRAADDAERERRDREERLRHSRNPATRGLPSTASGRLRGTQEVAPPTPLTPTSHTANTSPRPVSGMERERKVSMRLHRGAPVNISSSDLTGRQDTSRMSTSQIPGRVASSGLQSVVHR
T2 sequence (P49674 whole entry): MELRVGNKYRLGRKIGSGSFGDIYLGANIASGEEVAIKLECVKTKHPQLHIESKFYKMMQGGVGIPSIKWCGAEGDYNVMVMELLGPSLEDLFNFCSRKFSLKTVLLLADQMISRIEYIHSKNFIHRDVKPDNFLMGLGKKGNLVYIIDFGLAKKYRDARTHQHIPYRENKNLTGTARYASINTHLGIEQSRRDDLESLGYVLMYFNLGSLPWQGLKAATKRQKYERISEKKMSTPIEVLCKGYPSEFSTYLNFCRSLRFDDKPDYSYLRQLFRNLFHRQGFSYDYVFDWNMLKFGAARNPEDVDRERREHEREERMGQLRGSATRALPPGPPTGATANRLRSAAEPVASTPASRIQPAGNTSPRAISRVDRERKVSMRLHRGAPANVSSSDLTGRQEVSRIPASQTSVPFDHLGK

`O=C1OC(/C=C/c2ccccc2)=NC/1=C\c1cccnc1` [2-(2-phenylethenyl)-4-(3-pyridinylmethylene)-5(4H)-oxazolone]: the inhibition at 0.3 µg/mL in assay [1] turned out to be 85%; in assay [2], 83.4%.
In the same order, the values of `COc1ccc(C2=N/C(=C\c3cccnc3)C(=O)O2)cc1Br` [2-(3-Bromo-4-methoxyphenyl)-4-(3-pyridinylmethylene)-5-(4H)-oxazolone] are 94.2% and 99.4%.
On to `Cc1cc(C2=N/C(=C\c3cccnc3)C(=O)O2)ccc1Br` [2-(4-Bromo-3-methylphenyl)-4-(3-pyridinylmethylene)-5(4H)-oxazolone], for which the values for the inhibition at 0.3 µg/mL in assay [1] and in assay [2] were 83.2% and 97.8%, respectively.
With `Cn1cc(/C=C2\N=C(c3cccs3)OC2=O)cn1` [4-((1-Methyl-1H-pyrazol-4-yl)methylene)-2-(2-thienyl)-5(4H)-oxazolone], the inhibition at 0.3 µg/mL in assay [1] stood at 73.6%; in assay [2] it was 48.8%.
In the same order, the values of `O=C1OC(c2cccs2)=N/C1=C\c1ccc([N+](=O)[O-])c(Br)c1` [4-((3-Bromo-4-nitrophenyl)methylene)-2-(2-thienyl)-5(4H)-oxazolone] are 85.9% and 94.4%.
In the same order, the values of `O=C1OC(c2cccs2)=N/C1=C\c1ccc([N+](=O)[O-])c(Cl)c1` [4-((3-Chloro-4-nitrophenyl)methylene)-2-(2-thienyl)-5(4H)-oxazolone] are 87.6% and 97.6%.
In the same order, the values of `COc1ccc(/C=C2\N=C(c3cccs3)OC2=O)cc1[N+](=O)[O-]` [4-((4-Methoxy-3-nitrophenyl)methylene)-2-(2-thienyl)-5(4H)-oxazolone] are 91% and 94.8%.
As to `COc1ccc(/C=C2\N=C(c3cccs3)OC2=O)cc1` [4-((4-methoxyphenyl)methylene)-2-(2-thienyl)-5(4H)-oxazolone], the inhibition at 0.3 µg/mL in assay [1] was 96.1%; in assay [2] it was 98.6%.
As to `O=C1OC(c2cccs2)=N/C1=C\c1cc2c(cc1Cl)OCO2` [4-((6-Chloro-1,3-benzodioxol-5-yl)methylene)-2-(2-thienyl)-5(4R)-oxazolone], the inhibition at 0.3 µg/mL is 74.3% in assay [1] and 97% in assay [2].
In the same order, the values of `O=C1OC(c2cccs2)=N/C1=C\c1cc(Cl)c2c(c1)OCCO2` [4-((8-Chloro-2,3-dihydro-1,4-benzodioxin-6-yl)methylene)-2-(2-thienyl)-5(4H)-oxazolone] are 76.7% and 85.8%.
In the same order, the values of `COc1cncc(/C=C2\N=C(c3ccc(C)s3)OC2=O)c1` [Example 1, 4-((5-Methoxy-3-pyridinyl)methylene)-2-(5-methyl-2-thienyl)-5(4H)-oxazolone] are 82% and 97.1%.
In the same order, the values of `COc1cncc(/C=C2\N=C(c3cccs3)OC2=O)c1` [Example 2, 4-((5-Methoxy-3-pyridinyl)methylene)-2-(2-thienyl)-5(4H)-oxazolone] are 91.1% and 96.6%.
In the case of `O=C1OC(c2cccs2)=N/C1=C\c1cncc(F)c1` [Example 3, 4-((5-Fluoro-3-pyridinyl)methylene)-2-(2-thienyl)-5(4H)-oxazolone], the inhibition at 0.3 µg/mL in assay [1] is 87.4%; in assay [2], 92.1%.
In the same order, the values of `O=C1OC(c2cccs2)=N/C1=C\c1cccnc1F` [Example 4, 4-((2-Fluoro-3-pyridinyl)methylene)-2-(2-thienyl)-5(4H)-oxazolone] are 65.6% and 39.2%.
Take `COc1ccc(/C=C2\N=C(c3cccs3)OC2=O)cn1` [Example 5, 4-((6-Methoxy-3-pyridinyl)methylene)-2-(2-thienyl)-5(4H)-oxazolone]: the inhibition at 0.3 µg/mL was 86.3% in assay [1] and 95.6% in assay [2].
In the same order, the values of `COc1cc(/C=C2\N=C(c3cccs3)OC2=O)ccn1` [Example 9, 4-((2-Methoxy-4-pyridinyl)methylene)-2-(2-thienyl)-5(4H)-oxazolone] are 60.5% and 93.8%.
In the same order, the values of `Cn1cnc(/C=C2\N=C(c3cccs3)OC2=O)c1` [Example 10, 4-((1-Methyl-1H-imidazol-yl)methylene)-2-(2-thienyl)-5(4H)-oxazolone] are 37% and 18.1%.
In the same order, the values of `COCc1ccc(/C=C2\N=C(c3cccs3)OC2=O)o1` [Example 12, 4-((5-Methoxymethyl-2-furanyl)methylene)-2-(2-thienyl)-5(4H)-oxazolone] are 29% and 9%.
With `O=C1OC(c2cccs2)=N/C1=C\c1cocn1` [Example 13, 4-((4-Oxazoyl)methylene)-2-(2-thienyl)-5(4H)-oxazolone], the inhibition at 0.3 µg/mL in assay [1] came to 67.9%; in assay [2], 32%.
In the same order, the values of `O=C1OC(c2cccs2)=N/C1=C\c1csnn1` [Example 14, 4-((1,2,3-Thiadiazol-4-yl)methylene)-2-(2-thienyl)-5(4H)-oxazolone] are 32.2% and 19.2%.
In the same order, the values of `COc1ccc(/C=C2\N=C(c3cccs3)OC2=O)c(C)n1` [Example 18, 4-((6-Methoxy-2-methyl-3-pyridinyl)methylene)-2-(2-thienyl)-5(4H)-oxazolone] are 55.3% and 32.8%.
In the same order, the values of `COc1ccc(/C=C2\N=C(c3cccs3)OC2=O)c(Cl)n1` [Example 19, 4-((2-Chloro-6-methoxy-3-pyridinyl)methylene)-2-(2-thienyl)-5(4H)-oxazolone] are 76.1% and 52.5%.
`COc1cc(OC)c(C=C2C(O)=Nc3ccccc32)c(OC)c1` [IC261]: in assay [3], the “amount of Aβ40” value is “decreased” and the “amount of Aβ42” value is “decreased”. In addition, the cell growth result in assay [4] was “suppression of the cell growth was observed”. The “growth of tumor cells” value in assay [5] was “significant effect of suppressing the growth of tumor cells”.
For the molecule `COC(=O)c1ccc(/C=C2\N=C(c3cccs3)OC2=O)cc1` [Methyl 4-((5-oxo-2-(2-thienyl)oxazol-4(5H)-ylidene)methyl) benzoate], the inhibition at 0.3 µg/mL in assay [1] came out at 86.8%; in assay [2], 95.1%.
`Nc1nccc(-c2c(-c3ccc(F)cc3)ncn2C2CCCCC2)n1` [PF-670462, 4-[3-cyclohexyl-5-(4-fluoro-phenyl)-3H-imidazol-4-yl]-pyrimidin-2-ylamine]: in the assay with rats, the “phase of circadian rhythm” value was “significantly delayed”.
For the molecule `Nc1ccn([C@@H]2O[C@H](CO)[C@@H](O)C2(F)F)c(=O)n1` [gemcitabine], the “growth of tumor cells” value in assay [5] is on record as “significant effect of suppressing the growth of tumor cells”.
